Experimental data taken from PubChem BioAssay AID2060603 (Molecular Pharmacology Branch, DTP, NCI, 2025).

Test system: 422866-222-R5-J1-PDC spheroid viability
Test: Anticancer human tumor 422866-222-R5-J1-PDC patient-derived pancreatic adenocarcinoma cell line growth inhibition [CLK]
Conditions: spheroids with HUVEC and MSC; for IC50: curve of first compound; for viability, T/C: stronger effect = lower value; active = viability on the fitted dose curve at most 10% of control; inactive = the rest
Source text: A high-throughput screen of multi-cell type tumor spheroids was designed to identify active combinations of […] and targeted small molecules. Complex spheroids include a stromal component modeled by human endothelial cells (HUVEC) and fibroblasts modeled by human mesenchymal stem cells (MSCs). The concentration ranges selected for each drug and investigational agent were based upon clinically achievable concentrations if the clinical Cmax of the agent was known.
Compounds. The drugs and investigational agents: cirtuvivint (SM08502; NSC835563), CC-671 (NSC850746), vemurafenib (NSC761431), tapotoclax (NSC804041), sotorasib (NSC818433), adagrasib (NSC831453), MRTX-1133 (NSC836407), BAY2416964 (NSC825713), copanlisib (NSC816437), inavolisib (NSC800729), abemaciclib (NSC768073), osimertinib (NSC779217), entinostat (NSC756642), eltanexor (KPT-8602, NSC794443), venetoclax (NSC766270), ceralasertib (NSC777638), bortezomib (NSC756655), olaparib (NSC753686), talazoparib (NSC767125), alisertib (NSC759677), peposertib (NSC802822), gemcitabine (NSC613327), 5-fluorouracil (NSC19893), SN-38 (NSC673596), oxaliplatin (NSC266046), paclitaxel (NSC125973), and doxorubicin (NSC123127), were obtained from the National Cancer Institute (NCI) Developmental Therapeutics Program Chemical Repository. The FDA-approved anticancer drug set is available from the Developmental Therapeutics Program at https://dtp.cancer.gov/organization/dscb/obtaining/available plates.htm. […] The stock solutions were prepared in dimethyl sulfoxide (DMSO, Sigma-Aldrich, St. Louis, MO, cat. D2650), except for the platinum complexes which were prepared in saline (Quality Biological, Gaithersburg, MD, cat. 114-055-101), at 800-fold the tested concentration and stored at -70 degrees C prior to their use. All drugs and investigational agents were tested over a range starting from a high concentration at or near the clinical Cmax and decreasing in half-log increments. If the clinical Cmax for an agent had not been determined, the highest concentration tested was 10 microM.
Cell Culture. All cells were maintained in an incubator at 37 degrees C and 5% CO2 with 95% humidity. The PDC lines were cultured according to standard operating procedures established by the NCI PDMR. Briefly, all PDCs were thawed and cultured in Matrigel-coated flasks prepared with a working solution of 1X Ham's F-12 nutrient mix, without supplementation (Invitrogen, Waltham, MA, cat. 11765054), 100 U/mL penicillin-streptomycin (Invitrogen, cat. 15140122), and 2.5% Matrigel (Corning Inc., Corning, NY, cat. 354248) for the first three passages. The 947758-054-R-J2-PDC line was cultured in 6B/Colon 1A media, which includes advanced DMEM/F-12 (Thermo Fisher Scientific, cat. 12634028), 10 mM HEPES (Thermo Fisher Scientific, cat. 15630080), 1X GlutaMAX supplement (Thermo Fisher Scientific, cat. 35050061), 0.1 mg/mL primocin (InvivoGen, cat. ant-pm-2), 10% defined fetal bovine serum, heat inactivated (HyClone Laboratories Inc., cat. SH30070.03HI), 1.25 mM N-Acetyl-L-cysteine (Sigma-Aldrich, cat. A9165), 10 mM nicotinamide (Sigma-Aldrich, cat. N0636), 1X B-27 supplement (Thermo Fisher Scientific, cat. 17504044), 1X N-2 supplement (Thermo Fisher Scientific, cat. 17502048), and 10 microM Y-27632 dihydrochloride (Tocris Bioscience, cat. 1254). The 876862-298-R-J1-PDC was cultured in 6E media, which includes all 6B/Colon 1A media components plus 50% L-WRN conditioned media (ATCC, cat. CRL-3276), 50 ng/mL recombinant human EGF recombinant protein (hEGF; Thermo Fisher Scientific, cat. PHG0311), 10 ng/mL recombinant human fibroblast growth factor 10 (hGFG-10; PeproTech, cat. 100-26), 1 ng/mL recombinant human fibroblast growth factor 2 (hFGF-2; PeproTech, cat. 100-18B), and 1 µM prostaglandin E2 (PGE2; Tocris, cat. 2296). The 227483-062-R1-J1-PDC line was cultured in Panc media, containing all 6E components except hFGF-2, with the addition of 500 nM SB-431542 (Selleckchem, cat. S1067) and 10 nM gastrin (Tocris, cat. 3006). […]

[1] = second compound 0.0316 µM, first compound 0.0316 µM
[2] = second compound 0.0316 µM, first compound 0.1 µM
[3] = second compound 0.0316 µM, first compound 0.316 µM
[4] = second compound 0.0316 µM, first compound 1 µM
[5] = second compound 0.0316 µM, first compound 3.16 µM
[6] = second compound 0.0316 µM, first compound 10 µM
[7] = second compound 0.1 µM, first compound 0.0316 µM
[8] = second compound 0.1 µM, first compound 0.1 µM
[9] = second compound 0.1 µM, first compound 0.316 µM
[10] = second compound 0.1 µM, first compound 1 µM
[11] = second compound 0.1 µM, first compound 3.16 µM
[12] = second compound 0.1 µM, first compound 10 µM
[13] = second compound 0.316 µM, first compound 0.0316 µM
[14] = second compound 0.316 µM, first compound 0.1 µM
[15] = second compound 0.316 µM, first compound 0.316 µM
[16] = second compound 0.316 µM, first compound 1 µM
[17] = second compound 0.316 µM, first compound 3.16 µM
[18] = second compound 0.316 µM, first compound 10 µM
[19] = second compound 1 µM, first compound 0.0316 µM
[20] = second compound 1 µM, first compound 0.1 µM
[21] = second compound 1 µM, first compound 0.316 µM
[22] = second compound 1 µM, first compound 1 µM
[23] = second compound 1 µM, first compound 3.16 µM
[24] = second compound 1 µM, first compound 10 µM
[25] = second compound 3.16 µM, first compound 0.0316 µM
[26] = second compound 3.16 µM, first compound 0.1 µM
[27] = second compound 3.16 µM, first compound 0.316 µM
[28] = second compound 3.16 µM, first compound 1 µM
[29] = second compound 3.16 µM, first compound 3.16 µM
[30] = second compound 3.16 µM, first compound 10 µM
[31] = second compound 10 µM, first compound 0.0316 µM
[32] = second compound 10 µM, first compound 0.1 µM
[33] = second compound 10 µM, first compound 0.316 µM
[34] = second compound 10 µM, first compound 1 µM
[35] = second compound 10 µM, first compound 3.16 µM
[36] = second compound 10 µM, first compound 10 µM
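Note: spheroids exposed to agents for seven days before readout.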

C=C(F)C(=O)N1CCN(c2nc(OCC3CCCN3C)nc3c2CCN(c2cccc4cccc(Cl)c24)C3)CC1CC#N (stereo unspecified) + CN1CCN(c2cc(C(=O)Nc3cc4cc(-c5cnn(C)c5)ccc4cn3)ccn2)CC1
inactive: viability, T/C [1] 40.6% | viability, T/C [2] 29.3% | viability, T/C [3] 27% | viability, T/C [4] 26.2% | viability, T/C [5] 15.9% | viability, T/C [7] 45.5% | viability, T/C [8] 33.9% | viability, T/C [9] 29.3% | viability, T/C [10] 25.1% | viability, T/C [11] 19.9% | viability, T/C [13] 42.4% | viability, T/C [14] 30.6% | viability, T/C [15] 27.9% | viability, T/C [16] 20.1% | viability, T/C [17] 20% | viability, T/C [19] 19.9% | viability, T/C [20] 18.5% | viability, T/C [21] 18.6% | viability, T/C [22] 16.4%
< 31.6 nM: IC50 (second compound 0.0316 µM) | IC50 (second compound 0.1 µM) | IC50 (second compound 0.316 µM) | IC50 (second compound 1 µM) | IC50 (second compound 3.16 µM) | IC50 (second compound 10 µM)
active: viability, T/C [6] 2.17% | viability, T/C [12] 1.79% | viability, T/C [18] 0.13% | viability, T/C [23] 10.2% | viability, T/C [24] 0.1% | viability, T/C [25] 4.24% | viability, T/C [26] 4.94% | viability, T/C [27] 4.57% | viability, T/C [28] 3.86% | viability, T/C [29] 4.64% | viability, T/C [30] 0.71% | viability, T/C [31] 3.87% | viability, T/C [32] 0.7% | viability, T/C [33] 0.93% | viability, T/C [34] 0.72% | viability, T/C [35] 0.46% | viability, T/C [36] 0.15%

C=CC(=O)N1CCN(c2nc(=O)n(-c3c(C)ccnc3C(C)C)c3nc(-c4c(O)cccc4F)c(F)cc23)C(C)C1 (stereo unspecified) + CN1CCN(c2cc(C(=O)Nc3cc4cc(-c5cnn(C)c5)ccc4cn3)ccn2)CC1
active: viability, T/C [25] 4.94% | viability, T/C [26] 5.81% | viability, T/C [27] 5.39% | viability, T/C [28] 6.54% | viability, T/C [29] 6.25% | viability, T/C [30] 7.04% | viability, T/C [31] 0.98% | viability, T/C [32] 0.81% | viability, T/C [33] 0.76% | viability, T/C [34] 0.79% | viability, T/C [35] 0.84% | viability, T/C [36] 2.58%
inactive: viability, T/C [1] 44.6% | viability, T/C [2] 30.4% | viability, T/C [3] 40.1% | viability, T/C [4] 30.5% | viability, T/C [5] 29% | viability, T/C [6] 35.3% | viability, T/C [7] 46.9% | viability, T/C [8] 38.4% | viability, T/C [9] 36.6% | viability, T/C [10] 38.7% | viability, T/C [11] 35.1% | viability, T/C [12] 38.5% | viability, T/C [13] 42.7% | viability, T/C [14] 35.4% | viability, T/C [15] 29.9% | viability, T/C [16] 32.2% | viability, T/C [17] 33.9% | viability, T/C [18] 28.5% | viability, T/C [19] 20.9% | viability, T/C [20] 21.5% | viability, T/C [21] 21.2% | viability, T/C [22] 20.8% | viability, T/C [23] 17.6% | viability, T/C [24] 8.28%
< 31.6 nM: IC50 (second compound 0.0316 µM) | IC50 (second compound 0.1 µM) | IC50 (second compound 0.316 µM) | IC50 (second compound 1 µM) | IC50 (second compound 3.16 µM) | IC50 (second compound 10 µM)

COC1C=CCC(C)C(C)S(=O)(=O)NC(=O)c2ccc3c(c2)N(CC2CCC21)CC1(CCCc2cc(Cl)ccc21)CO3 (stereo unspecified) + CN1CCN(c2cc(C(=O)Nc3cc4cc(-c5cnn(C)c5)ccc4cn3)ccn2)CC1
< 31.6 nM: IC50 (second compound 1 µM) | IC50 (second compound 3.16 µM) | IC50 (second compound 10 µM)
> 10000 nM: IC50 (second compound 0.0316 µM) | IC50 (second compound 0.1 µM) | IC50 (second compound 0.316 µM)
inactive: viability, T/C [1] 102% | viability, T/C [2] 102% | viability, T/C [3] 113% | viability, T/C [4] 98.1% | viability, T/C [5] 97% | viability, T/C [6] 76.8% | viability, T/C [7] 131% | viability, T/C [8] 104% | viability, T/C [9] 105% | viability, T/C [10] 107% | viability, T/C [11] 114% | viability, T/C [12] 94.7% | viability, T/C [13] 103% | viability, T/C [14] 92.8% | viability, T/C [15] 104% | viability, T/C [16] 99% | viability, T/C [17] 113% | viability, T/C [18] 105% | viability, T/C [19] 29.4% | viability, T/C [20] 28.8% | viability, T/C [21] 38.5% | viability, T/C [22] 28.9% | viability, T/C [23] 38.7% | viability, T/C [24] 39.2%
active: viability, T/C [25] 8.76% | viability, T/C [26] 9.13% | viability, T/C [27] 9.74% | viability, T/C [28] 7.9% | viability, T/C [29] 9.36% | viability, T/C [30] 5.17% | viability, T/C [31] 2.4% | viability, T/C [32] 1.91% | viability, T/C [33] 1.69% | viability, T/C [34] 1.81% | viability, T/C [35] 2.33% | viability, T/C [36] 3.52%
